The values below come from patent US10335503B2, “Compound that specifically binds to AMPA receptor” (Public University Corporation Yokohama City University, priority 2015, dated 2019).

One experiment has as its target α2C-Adrenergic (Homo sapiens, UniProt P18825). In words: Receptor binding panel: α2C-Adrenergic. The settings on record: K-2 at 1 × 10^−7 mol/L.
The target in another experiment is Histamine H3 (Homo sapiens, UniProt Q9Y5N1). In words: Receptor binding panel: Histamine H3. The settings on record: K-2 at 1 × 10^−7 mol/L.
Histamine H3, sequence (Q9Y5N1 whole entry): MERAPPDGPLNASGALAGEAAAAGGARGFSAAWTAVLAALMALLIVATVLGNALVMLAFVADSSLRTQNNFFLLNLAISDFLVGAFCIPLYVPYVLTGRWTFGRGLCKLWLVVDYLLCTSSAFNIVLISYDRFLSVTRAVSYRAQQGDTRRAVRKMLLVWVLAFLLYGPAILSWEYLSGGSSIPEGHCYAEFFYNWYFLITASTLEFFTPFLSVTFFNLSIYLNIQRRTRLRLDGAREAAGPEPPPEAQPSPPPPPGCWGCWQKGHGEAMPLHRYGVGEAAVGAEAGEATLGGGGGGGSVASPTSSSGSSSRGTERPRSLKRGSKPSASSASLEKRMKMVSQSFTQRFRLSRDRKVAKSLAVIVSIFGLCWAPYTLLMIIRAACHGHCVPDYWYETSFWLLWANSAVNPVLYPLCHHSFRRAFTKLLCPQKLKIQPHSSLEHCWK
The test system of experiment [1] is Ca channel (Type L, Dihydropyridine). In words: Receptor binding panel: Ca channel (Type L, Dihydropyridine). The note with it: K-2 at 1 × 10^−7 mol/L.
The next experiment concerns the target VIP 1 (Homo sapiens, UniProt P32241). In words: Receptor binding panel: VIP 1. The settings on record: K-2 at 1 × 10^−7 mol/L.
The target of the next experiment is β2-Adrenergic (Homo sapiens, UniProt P07550). Put plainly: Receptor binding panel: β2-Adrenergic. The note with it: K-2 at 1 × 10^−7 mol/L.
The next experiment concerns the target Histamine H2 (Homo sapiens, UniProt P25021). Put plainly: Receptor binding panel: Histamine H2. The settings on record: K-2 at 1 × 10^−7 mol/L.
The next experiment addresses Melatonin MT1 (Homo sapiens, UniProt P48039). In words: Receptor binding panel: Melatonin MT1. The settings on record: K-2 at 1 × 10^−7 mol/L.
A further experiment concerns the target Angiotensin AT1 (Homo sapiens, UniProt P30556). In words: Receptor binding panel: Angiotensin AT1. The settings on record: K-2 at 1 × 10^−7 mol/L.
Another experiment has as its target Serotonin 5HT1A (Homo sapiens, UniProt P08908). In words: Receptor binding panel: Serotonin 5HT1A. The settings on record: K-2 at 1 × 10^−7 mol/L.
A further experiment concerns Leukotriene D4. Put plainly: Receptor binding panel: Leukotriene D4. The settings on record: K-2 at 1 × 10^−7 mol/L.
The next experiment has as its target T1, CRF1 (Homo sapiens, UniProt P34998).
T1 sequence (P34998 24-415): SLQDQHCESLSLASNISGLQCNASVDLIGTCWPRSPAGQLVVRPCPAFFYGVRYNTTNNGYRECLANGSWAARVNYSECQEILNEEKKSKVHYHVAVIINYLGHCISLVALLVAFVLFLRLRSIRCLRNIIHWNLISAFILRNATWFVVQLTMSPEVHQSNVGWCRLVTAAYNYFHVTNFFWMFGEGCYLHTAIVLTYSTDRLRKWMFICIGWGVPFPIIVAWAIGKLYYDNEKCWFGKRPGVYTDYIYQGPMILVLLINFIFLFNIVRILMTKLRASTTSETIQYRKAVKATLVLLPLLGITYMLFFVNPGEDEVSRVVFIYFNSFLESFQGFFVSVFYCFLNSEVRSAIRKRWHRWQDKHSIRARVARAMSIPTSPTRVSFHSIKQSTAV
Put plainly: Receptor binding panel: CRF1. The note with it: K-2 at 1 × 10^−7 mol/L.

Another experiment has as its system Glutamate (AMPA). In words: Receptor binding panel: Glutamate (AMPA). The note with it: K-2 at 1 × 10^−7 mol/L.
The next experiment has as its system Nicotinic. Put plainly: Receptor binding panel: Nicotinic. The settings on record: K-2 at 1 × 10^−7 mol/L. Further details: species or system Human.
The target of a further experiment is Neurokinin NK1 (Homo sapiens, UniProt P25103). In words: Receptor binding panel: Neurokinin NK1. The settings on record: K-2 at 1 × 10^−7 mol/L.
Another experiment deals with β1-Adrenergic (Homo sapiens, UniProt P08588). Put plainly: Receptor binding panel: β1-Adrenergic. The settings on record: K-2 at 1 × 10^−7 mol/L.
β1-Adrenergic, sequence (P08588 whole entry): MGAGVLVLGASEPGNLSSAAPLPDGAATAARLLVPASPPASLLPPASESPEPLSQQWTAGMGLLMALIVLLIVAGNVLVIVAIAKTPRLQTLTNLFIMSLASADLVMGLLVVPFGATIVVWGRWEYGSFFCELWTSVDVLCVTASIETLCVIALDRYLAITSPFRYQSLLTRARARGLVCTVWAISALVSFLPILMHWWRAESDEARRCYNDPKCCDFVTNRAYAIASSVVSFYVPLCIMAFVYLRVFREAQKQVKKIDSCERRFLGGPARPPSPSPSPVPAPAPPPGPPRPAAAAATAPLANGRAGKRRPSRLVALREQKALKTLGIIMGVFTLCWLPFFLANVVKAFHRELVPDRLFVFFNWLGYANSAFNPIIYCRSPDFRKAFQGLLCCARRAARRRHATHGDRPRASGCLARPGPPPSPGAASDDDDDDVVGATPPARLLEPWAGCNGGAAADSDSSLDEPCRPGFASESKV
The test system of another experiment is AMPA receptor. In words: Electrophysiological experiment: AMPA current by whole-cell recording in acute hippocampus section. The class given is cell-based, rat. The settings on record: 150 μM in ACSF for 15 minutes, CA1 pyramidal cell, ground state converted as 1. As for the experimental part: In the LC-MS/MS experiment, all of the synthesized compounds were dissolved in 100% DMSO so as to have a concentration of 2.5 mM, diluted with physiological saline water immediately before administration (PEPA (1.2 pmol/g), M-1 (12 pmol/g), K-2 (12 pmol/g), M-3 (60 pmol/g), and M-2 (240 pmol/g)), and administered by the parenteral route. In the electrophysiological experiment, PEPA and K-2 were dissolved in 100% DMSO so as to have a concentration of 150 mM, diluted with ACSF as a reflux liquid immediately before the experiment so as to have a concentration of 150 μM and then used. […]
A 7- to 8-week-old male SD rat was used. […] The section was left to stand still in ACSF at room temperature for 60 minutes, and then the AMPA current was measured by a whole-cell recording method. 100 μM of picrotoxin and 100 μM of DL-APV were administered under the condition that the ACSF was refluxed at a rate of 3 ml/min, and then only the AMPA current was isolated and measured.
The recording electrode was placed on a pyramidal cell in CA1, and the exciting electrode was placed on the Schaffer fiber separated away from the recording cell by 100 to 200 μm. […] The AMPA current in the ground state was recorded for 5 minutes, reflux was thereafter performed using ACSF added with PEPA or K-2 for 15 minutes, and then the AMPA current was recorded in the reflux liquid not containing PEPA or K-2 for 30 minutes. […]

The next experiment concerns Estrogen. Put plainly: Receptor binding panel: Estrogen. The settings on record: K-2 at 1 × 10^−7 mol/L.
The next experiment addresses Endothelin ETA (Homo sapiens, UniProt P25101). In words: Receptor binding panel: Endothelin ETA. The note with it: K-2 at 1 × 10^−7 mol/L.
In experiment [2] the test system is Glutamate (NMDA glycine site). In words: Receptor binding panel: Glutamate (NMDA glycine site). The settings on record: K-2 at 1 × 10^−7 mol/L.
The next experiment addresses Muscarinic M3 (Homo sapiens, UniProt P20309). In words: Receptor binding panel: Muscarinic M3. The note with it: K-2 at 1 × 10^−7 mol/L.
The next experiment has as its target Neurokinin NK3 (Homo sapiens, UniProt P29371). In words: Receptor binding panel: Neurokinin NK3. The note with it: K-2 at 1 × 10^−7 mol/L.

Usually inhibition stands for the drop in the measured response relative to a control, in per cent.

VIP 1, sequence (P32241 31-457): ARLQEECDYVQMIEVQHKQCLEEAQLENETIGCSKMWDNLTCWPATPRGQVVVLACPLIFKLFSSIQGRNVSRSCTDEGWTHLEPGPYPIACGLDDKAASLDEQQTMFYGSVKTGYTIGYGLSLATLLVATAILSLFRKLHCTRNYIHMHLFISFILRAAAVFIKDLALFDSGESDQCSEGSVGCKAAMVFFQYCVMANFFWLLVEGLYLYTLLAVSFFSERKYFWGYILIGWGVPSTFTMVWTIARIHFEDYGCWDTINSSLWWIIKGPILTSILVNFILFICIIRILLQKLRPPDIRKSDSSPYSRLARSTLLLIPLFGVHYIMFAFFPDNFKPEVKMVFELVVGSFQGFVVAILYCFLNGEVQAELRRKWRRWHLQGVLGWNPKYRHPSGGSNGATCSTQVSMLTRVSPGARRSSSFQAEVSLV
Angiotensin AT1, sequence (P30556 whole entry): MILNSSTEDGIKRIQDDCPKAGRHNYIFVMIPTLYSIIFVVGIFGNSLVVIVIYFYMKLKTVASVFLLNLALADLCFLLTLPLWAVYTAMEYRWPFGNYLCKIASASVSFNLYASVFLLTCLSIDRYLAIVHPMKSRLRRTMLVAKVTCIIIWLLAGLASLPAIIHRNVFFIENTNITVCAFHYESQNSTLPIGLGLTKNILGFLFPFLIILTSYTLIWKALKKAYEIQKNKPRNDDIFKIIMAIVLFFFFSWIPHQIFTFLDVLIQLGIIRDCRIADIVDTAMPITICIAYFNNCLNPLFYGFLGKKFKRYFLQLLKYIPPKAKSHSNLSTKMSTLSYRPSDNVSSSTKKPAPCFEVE
Endothelin ETA, sequence (P25101 21-427): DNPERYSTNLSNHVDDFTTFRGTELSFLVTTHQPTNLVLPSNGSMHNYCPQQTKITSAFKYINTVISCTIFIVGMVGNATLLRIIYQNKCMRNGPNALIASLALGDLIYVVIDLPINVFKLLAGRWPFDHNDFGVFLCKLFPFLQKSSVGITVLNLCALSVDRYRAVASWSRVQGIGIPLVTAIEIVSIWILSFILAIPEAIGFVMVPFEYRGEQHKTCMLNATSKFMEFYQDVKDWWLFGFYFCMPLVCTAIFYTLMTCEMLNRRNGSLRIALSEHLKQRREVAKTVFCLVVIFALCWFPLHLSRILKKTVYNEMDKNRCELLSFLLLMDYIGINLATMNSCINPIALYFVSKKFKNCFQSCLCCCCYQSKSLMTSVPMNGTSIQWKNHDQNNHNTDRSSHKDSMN
Muscarinic M3, sequence (P20309 whole entry): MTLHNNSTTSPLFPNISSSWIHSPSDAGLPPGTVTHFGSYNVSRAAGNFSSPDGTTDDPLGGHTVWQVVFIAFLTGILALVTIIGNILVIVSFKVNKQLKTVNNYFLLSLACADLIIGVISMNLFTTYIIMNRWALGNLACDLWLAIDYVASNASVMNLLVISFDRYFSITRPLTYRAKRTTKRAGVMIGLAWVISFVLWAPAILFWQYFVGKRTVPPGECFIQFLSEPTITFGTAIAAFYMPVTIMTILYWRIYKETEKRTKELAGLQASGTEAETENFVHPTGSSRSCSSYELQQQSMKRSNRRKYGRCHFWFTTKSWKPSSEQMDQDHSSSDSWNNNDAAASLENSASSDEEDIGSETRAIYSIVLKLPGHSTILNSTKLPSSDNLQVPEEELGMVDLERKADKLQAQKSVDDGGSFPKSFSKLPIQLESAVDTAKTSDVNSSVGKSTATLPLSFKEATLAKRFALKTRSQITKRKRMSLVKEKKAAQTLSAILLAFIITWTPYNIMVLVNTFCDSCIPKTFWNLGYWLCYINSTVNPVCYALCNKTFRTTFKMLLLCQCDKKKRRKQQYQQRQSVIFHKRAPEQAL
Serotonin 5HT1A, sequence (P08908 whole entry): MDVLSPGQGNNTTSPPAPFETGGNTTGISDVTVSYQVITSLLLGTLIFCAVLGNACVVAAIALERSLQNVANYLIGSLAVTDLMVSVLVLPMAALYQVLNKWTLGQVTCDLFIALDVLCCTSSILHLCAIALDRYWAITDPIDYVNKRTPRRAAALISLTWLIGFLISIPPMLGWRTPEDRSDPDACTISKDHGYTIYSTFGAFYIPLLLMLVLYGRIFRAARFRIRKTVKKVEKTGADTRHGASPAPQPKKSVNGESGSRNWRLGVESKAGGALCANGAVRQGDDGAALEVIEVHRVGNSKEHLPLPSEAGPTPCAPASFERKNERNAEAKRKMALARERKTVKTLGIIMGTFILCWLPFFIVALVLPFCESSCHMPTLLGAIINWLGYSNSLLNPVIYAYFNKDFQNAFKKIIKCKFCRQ
Melatonin MT1, sequence (P48039 whole entry): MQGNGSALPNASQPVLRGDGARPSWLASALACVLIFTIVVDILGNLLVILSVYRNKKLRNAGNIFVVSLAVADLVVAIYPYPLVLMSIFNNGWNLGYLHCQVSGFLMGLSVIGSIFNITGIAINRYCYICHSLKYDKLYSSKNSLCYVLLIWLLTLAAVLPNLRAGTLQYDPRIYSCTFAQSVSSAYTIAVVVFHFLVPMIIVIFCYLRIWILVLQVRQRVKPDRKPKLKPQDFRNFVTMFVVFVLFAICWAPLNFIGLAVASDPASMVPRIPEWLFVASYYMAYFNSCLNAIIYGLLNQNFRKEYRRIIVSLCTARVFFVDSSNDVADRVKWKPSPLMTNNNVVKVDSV
Histamine H2, sequence (P25021 whole entry): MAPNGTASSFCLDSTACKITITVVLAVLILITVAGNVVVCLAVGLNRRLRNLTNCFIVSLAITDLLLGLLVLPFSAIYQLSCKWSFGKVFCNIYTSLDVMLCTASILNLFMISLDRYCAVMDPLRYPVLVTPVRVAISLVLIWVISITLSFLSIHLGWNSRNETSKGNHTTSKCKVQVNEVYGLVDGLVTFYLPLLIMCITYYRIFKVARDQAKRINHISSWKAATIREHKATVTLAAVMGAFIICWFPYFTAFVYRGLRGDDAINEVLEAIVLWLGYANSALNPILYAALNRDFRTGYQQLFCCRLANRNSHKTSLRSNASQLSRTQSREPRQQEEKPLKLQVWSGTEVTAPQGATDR
Neurokinin NK3, sequence (P29371 whole entry): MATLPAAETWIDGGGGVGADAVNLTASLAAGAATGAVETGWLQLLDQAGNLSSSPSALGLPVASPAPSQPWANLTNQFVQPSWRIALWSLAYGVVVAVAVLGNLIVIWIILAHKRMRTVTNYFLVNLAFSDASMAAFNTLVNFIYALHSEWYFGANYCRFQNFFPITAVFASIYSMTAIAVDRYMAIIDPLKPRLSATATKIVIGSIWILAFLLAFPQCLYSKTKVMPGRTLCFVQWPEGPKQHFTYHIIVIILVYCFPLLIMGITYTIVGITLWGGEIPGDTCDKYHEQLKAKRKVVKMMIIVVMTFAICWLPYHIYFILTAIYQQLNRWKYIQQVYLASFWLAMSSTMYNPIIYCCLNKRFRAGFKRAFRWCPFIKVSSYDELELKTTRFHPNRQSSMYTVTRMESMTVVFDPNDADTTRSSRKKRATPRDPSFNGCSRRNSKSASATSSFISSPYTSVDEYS
α2C-Adrenergic, sequence (P18825 whole entry): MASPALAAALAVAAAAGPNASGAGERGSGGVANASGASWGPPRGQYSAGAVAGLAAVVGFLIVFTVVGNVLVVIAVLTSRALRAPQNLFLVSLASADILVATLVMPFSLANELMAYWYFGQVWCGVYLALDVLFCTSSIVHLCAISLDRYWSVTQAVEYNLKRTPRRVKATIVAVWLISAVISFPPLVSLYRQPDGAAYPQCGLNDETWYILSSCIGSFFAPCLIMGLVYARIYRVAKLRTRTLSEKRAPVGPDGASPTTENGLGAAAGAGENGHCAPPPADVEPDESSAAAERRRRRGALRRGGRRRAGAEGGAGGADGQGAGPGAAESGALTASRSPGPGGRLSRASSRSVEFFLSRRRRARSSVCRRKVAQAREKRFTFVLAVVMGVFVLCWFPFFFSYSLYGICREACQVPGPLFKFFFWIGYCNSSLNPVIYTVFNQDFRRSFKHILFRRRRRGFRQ

On to `CN(CCSc1cc(F)c(OCC(N)=O)c(F)c1)S(=O)(=O)c1ccccc1` [K-2, {4-[2-(benzenesulfonyl-methyl-amino)-ethylsulfanil]-2,6-difluoro-phenoxy}-acetamide], for which the inhibition at 0.1 µM at α2C-Adrenergic is 5.82%; at Histamine H3, 0%; at VIP 1 it was 0%; on β2-Adrenergic, 3.39%; at Histamine H2 it was 0.79%; at Melatonin MT1 it was 0.11%. Further, the inhibition at 0.1 µM on Angiotensin AT1 was 1.52%; on Serotonin 5HT1A it was 1.98%; at CRF1, 1.37%; on Neurokinin NK1, 0%; at β1-Adrenergic, 0.82%; on Endothelin ETA, 1.81%. Further, the inhibition at 0.1 µM on Muscarinic M3 was 5.99%; at Neurokinin NK3 it was 0%. For the same compound, the “Inhibition (%)” value is 0.53% in experiment [1]; 0.16% in the experiment on Leukotriene D4; 1.74% in the experiment on Glutamate (AMPA); 7.17% with Nicotinic; 2.83% with Estrogen; 0.64% in experiment [2]. The “ratio of AMPA current to reference value” in the experiment on AMPA receptor is 1.7±0.22.
